From patent US5393748A, “Methylenebisphosphonic acid derivatives” (priority 1990, dated 1995)

What was measured:
[1] = test system: retinoid induced bone resorption in thyroparathyroidectomised rats; assay: Inhibition of retinoid induced bone resorption in thyroparathyroidectomised rats in vivo; design: species or system rat; details: 150 μmole/kg
Procedure: (§1) The parathyroid hormone stimulated bone resorption inhibition activity of the compounds in vitro in mouse calvaria, as well as the inhibition of retinoid induced bone resorption in thyroparathyroidectomised rats in vivo were determined (Reynolds & Dingle (Calc Tiss Res 1970; 4:339, and Trechsel et al. (J Clin Invest 1987; 80:1679)).

[2] = test system: parathyroid hormone stimulated bone resorption in mouse calvaria; assay: Parathyroid hormone stimulated bone resorption inhibition in vitro in mouse calvaria; type: cell-based; details: 100 μm
Procedure: as §1

Row | SMILES | Inhibition of resorption (%), in vivo [1] [%] | Inhibition of resorption (%), in vitro [2] [%]
1 | O=P(O)(O)C(Cl)(Cl)P(=O)(O)O [Clodronate, reference compound] | 64 | 
2 | Cc1cccnc1NC(P(=O)(O)O)P(=O)(O)O [[[(3-methyl 2-pyridinyl)amino]methylidene]bisphosphonate, reference compound] |  | 51
3 | O=P(O)(O)C(Nc1ccccn1)P(=O)(O)O [[[(2-pyridinyl)amino]methylidene]bisphosphonate, reference compound] | > 100 | 56
4 | CCOP(=O)(O)C(Nc1ncccc1C)P(=O)(O)OCC (stereo not shown) [[[(3-Methyl-2-pyridinyl)amino]methylidene) Bisphosphonic Acid P,P'-diethyl Ester] | 66 | 43
5 | CC(C)OP(=O)(O)C(Sc1ccccn1)P(=O)(O)O (stereo not shown) [[[(2-Pyridinyl)thio]methylidene]bisphosphonic Acid Monoisopropyl Ester] | 87 | 50
6 | CCOP(=O)(O)C(Nc1ccccn1)P(=O)(O)OCC (stereo not shown) [[[(2-Pyridinyl)amino]methylidene]bisphosphonic acid P,P'-diethyl ester] | 65 | 33
